Usually melting point stands for the temperature, or range, at which the solid turns liquid.

We go through 33 molecules from US20020028938A1, “Prostaglandin endoperoxide H synthase biosynthesis inhibitors” (priority 1997, published 2002).

`COc1cc(Nc2c(-c3ccc(S(C)(=O)=O)cc3)cnn(CC(F)(F)F)c2=O)cc(C(F)(F)F)c1` [Example 310, 2-(2,2,2-Trifluoroethyl)-4-[3-methoxy-5-(trifluoromethyl)anilino]-5-[4-(methylsulfonyl)phenyl]-3(2H)-pyridazinone] showed a melting point of 206 to 208 °C.
The value for `CS(=O)(=O)c1ccc(-c2cnn(CC(F)(F)F)c(=O)c2Nc2ccccc2)cc1` [Example 311, 2-(2,2,2-Trifluoroethyl)-4-anilino-5-[4-(methylsulfonyl)phenyl]-3(2H)-pyridazinone] was 154 to 156 °C; that for `CS(=O)(=O)c1ccc(-c2cnn(CC(F)(F)F)c(=O)c2Nc2cc(F)cc(F)c2F)cc1` [Example 315, 2-(2,2,2-Trifluoroethyl)-4-(2,3,5-trifluoroanilino)-5-[4-(methylsulfonyl)phenyl]-3(2H)-pyridazinone] was 190 to 194 °C.
The same measure for `CS(=O)(=O)c1ccc(-c2cnn(CC(F)(F)F)c(=O)c2Nc2ccc(F)cc2)cc1` [Example 316, 2-(2,2,2-Trifluoroethyl)-4-(4-fluoroanilino)-5-[4-(methylsulfonyl)phenyl]-3(2H)-pyridazinone]: 158 to 160 °C; for `CS(=O)(=O)c1ccc(-c2cnn(Cc3ccccc3)c(=O)c2-c2ccc3c(c2)COC3=O)cc1` [Example 319, 2-Benzyl-4-(1-oxo-1,3-dihydro-2-benzofuran-5-yl)-5-[4-(methylsulfonyl)phenyl]-3(2H)-pyridazinone]: over 250 °C.
Take `COc1c(-c2ccc(S(C)(=O)=O)cc2)cnn(-c2cccc(Cl)c2)c1=O` [Example 331, 2-(3-Chlorophenyl)-4-methoxy-5-[4-(methylsulfonyl)phenyl]-3(2H)-pyridazinone]: the melting point was 112 to 114 °C.
The value for `CS(=O)(=O)c1ccc(-c2cnn(-c3ccc(F)cc3)c(=O)c2N2CCCC2)cc1` [Example 356, 2-(4-Fluorophenyl)-4-(1-pyrrolidinyl)-5-[4-(methylsulfonyl)phenyl]-3(2H)-pyridazinone] was 192 to 195 °C.
As for `Cc1ccc(Sc2c(-c3ccc(S(C)(=O)=O)cc3)cnn(-c3cccc(Cl)c3)c2=O)cc1` [Example 357, 2-(3-Chlorophenyl)-4-(4-methylphenylthio)-5-[4-(methylsulfonyl)phenyl]-3(2H)-pyridazinone], the melting point came out at 178 °C.
The value for `CS(=O)(=O)c1ccc(-c2cnn(-c3cccc(Cl)c3)c(=O)c2SCc2ccccc2)cc1` [Example 359, 2-(3-Chlorophenyl)-4-(phenylmethylthio)-5-[4-(methylsulfonyl)phenyl]-3(2H)-pyridazinone] was 142 to 145 °C; that for `CS(=O)(=O)c1ccc(-c2cnn(-c3cccc(Cl)c3)c(=O)c2SCc2ccco2)cc1` [Example 360, 2-(3-Chlorophenyl)-4-(2-furylmethylthio)-5-[4-(methylsulfonyl)phenyl]-3(2H)-pyridazinone] was 140 to 149 °C.
`CS(=O)(=O)c1ccc(-c2cnn(-c3ccc(F)cc3)c(=O)c2Cc2ccc(F)cc2)cc1` [Example 377, 2-(4-Fluorophenyl)-4-(4-fluorobenzyl)-5-[4-(methylsulfonyl)phenyl]-3(2H)-pyridazinone] registered a melting point of 175 to 177 °C.
The same measure for `CC(C)COc1c(-c2ccc(S(N)(=O)=O)c(F)c2)cnn(CC(F)(F)F)c1=O` [Example 382, 2-(2,2,2-Trifluoroethyl)-4-(2-methylpropoxy)-5-[3-fluoro-4-(aminosulfonyl)phenyl]-3(2H)-pyridazinone]: 163 to 164 °C; for `NS(=O)(=O)c1ccc(-c2cnn(Cc3ccccc3)c(=O)c2Cc2ccc(F)cc2)cc1` [Example 383, 2-Benzyl-4-(4-fluorobenzyl)-5-[4-(aminosulfonyl)phenyl]-3(2H)-pyridazinone]: 120 to 123 °C.
Consider `Cc1cc(-c2c(-c3ccc(S(N)(=O)=O)cc3)cnn(-c3ccc(F)c(Cl)c3)c2=O)ccc1F` [Example 389, 2-(3-Chloro-4-fluorophenyl)-4-(4-fluoro-3-methylphenyl)-5-[4-(aminosulfonyl)phenyl]-3(2H)-pyridazinone], for which the melting point is 243 to 245 °C.
The value for `CS(=O)(=O)c1ccc(-c2cnn(-c3ccc(F)cc3)c(=O)c2OCC2CC2)cc1` [Example 416, 2-(4-Fluorophenyl)-4-cyclopropylmethoxy-5-[4-(methylsulfonyl)phenyl]-3(2H)-pyridazinone] was 166 to 167 °C.
Molecule `CS(=O)(=O)c1ccc(-c2cnn(-c3ccc(F)cc3)c(=O)c2OCCC2CC2)cc1` [Example 417, 2-(4-Fluorophenyl)-4-(2-cyclopropyl-1-ethoxy)-5-[4-(methylsulfonyl)phenyl]-3(2H)-pyridazinone] gave a melting point of 111 to 117 °C.
Turning to `CC(C)CCC(C)Oc1c(-c2ccc(S(C)(=O)=O)cc2)cnn(-c2ccc(F)cc2)c1=O` (stereo not drawn) [Example 429, 2-(4-Fluorophenyl)-4-(5-methyl-2-hexyloxy)-5-[4-(methylsulfonyl)phenyl]-3(2H)-pyridazinone], the melting point lay in the range of 102 to 103 °C.
The same measure for `CCCC(CCOc1c(-c2ccc(S(C)(=O)=O)cc2)cnn(-c2ccc(F)cc2)c1=O)SC` (stereo not drawn) [Example 433, 2-(4-Fluorophenyl)-4-(3-methylthio-1-hexyloxy)-5-[4-(methylsulfonyl)phenyl]-3(2H)-pyridazinone]: 90 to 92 °C; for `CC(CCOc1c(-c2ccc(S(C)(=O)=O)cc2)cnn(-c2ccc(F)c(F)c2)c1=O)C(F)(F)F` (stereo not drawn) [Example 435, 2-(3,4-Difluorophenyl)-4-(3-trifluoromethyl-1-butoxy)-5-[4-(methylsulfonyl)phenyl]-3(2H)-pyridazinone]: 126 to 128 °C; for `CCOc1c(-c2ccc(S(C)(=O)=O)cc2)cnn(-c2ccc(F)c(F)c2)c1=O` [Example 436, 2-(3,4-Difluorophenyl)-4-ethoxy-5-[4-(methylsulfonyl)phenyl]-3(2H)-pyridazinone]: 121 to 123 °C.
For the molecule `CS(=O)(=O)c1ccc(-c2cnn(-c3ccc(F)c(F)c3)c(=O)c2OCCC2CCCC2)cc1` [Example 439, 2-(3,4-Difluorophenyl)-4-(2-cyclopentyl-1-ethoxy)-5-[4-(methylsulfonyl)phenyl]-3(2H)-pyridazinone], the melting point is 100 to 101 °C.
The same measure for `CS(=O)(=O)c1ccc(-c2cnn(CC(O)c3ccccc3)c(=O)c2-c2ccc(F)cc2)cc1` (stereo not drawn) [Example 441, 2-(2-Hydroxy-2-phenylethyl)-4-(4-fluorophenyl)-5-[4-(methylsulfonyl)phenyl]-3(2H)-pyridazinone]: 205 to 207 °C.
As to `COc1c(-c2ccc(S(C)(=O)=O)cc2)cnn(-c2ccc(F)c(F)c2)c1=O` [Example 453, 2-(3,4-Difluorophenyl)-4-methoxy-5-[4-(methylsulfonyl)phenyl]-3(2H)-pyridazinone], the melting point lay in the range of 113 to 115 °C.
The value for `CS(=O)(=O)c1ccc(-c2cnn(-c3ccc(F)cc3)c(=O)c2-c2cccc(F)c2)cc1` [Example 458, 2-(4-Fluorophenyl)-4-(3-fluorophenyl)-5-[4-(methylsulfonyl)phenyl]-3(2H)-pyridazinone] was 199 to 201 °C.
In turn, `CON=C(C)COc1c(-c2ccc(S(C)(=O)=O)cc2)cnn(-c2ccc(F)c(F)c2)c1=O` [Example 461, 2-(3,4-Difluorophenyl)-4-[2-(methoxyimino)-1-propoxy]-5-[4-(methylsulfonyl)phenyl]-3(2H)-pyridazinone] gave a melting point of 143 to 145 °C.
The value for `CC(=O)CCOc1c(-c2ccc(S(C)(=O)=O)cc2)cnn(-c2ccc(F)cc2)c1=O` [Example 468, 2-(4-Fluorophenyl)-4-(3-oxo-1-butoxy)-5-[4-(methylsulfonyl)phenyl]-3(2H)-pyridazinone] was 133 to 136 °C; that for `CC(C)(O)CCOc1c(-c2ccc(S(N)(=O)=O)cc2)cnn(-c2ccc(F)cc2)c1=O` [Example 470, 2-(4-Fluorophenyl)-4-(3-hydroxy-3-methyl-1-butoxy)-5-[4-(aminosulfonyl)phenyl]-3(2H)-pyridazinone] was 163 to 164 °C; that for `CC(C)(O)CCOc1c(-c2ccc(S(N)(=O)=O)cc2)cnn(-c2ccc(F)c(F)c2)c1=O` [Example 472, 2-(3,4-Difluorophenyl)-4-(3-hydroxy-3-methyl-1-butoxy)-5-[4-(aminosulfonyl)phenyl]-3(2H)-pyridazinone] was 181 °C.
The same measure for `CC(C)(O)CCOc1c(-c2ccc(S(C)(=O)=O)cc2)cnn(-c2ccc(F)c(Cl)c2)c1=O` [Example 473, 2-(3-Chloro-4-fluorophenyl)-4-(3-hydroxy-3-methyl-1-butoxy)-5-[4-(methylsulfonyl)phenyl]-3(2H)-pyridazinone]: 108 to 110 °C; for `CC(C)(O)CCOc1c(-c2ccc(S(N)(=O)=O)cc2)cnn(-c2ccc(F)c(Cl)c2)c1=O` [Example 474, 2-(3-Chloro-4-fluorophenyl)-4-(3-hydroxy-3-methyl-1-butoxy)-5-[4-(aminosulfonyl)phenyl]-3(2H)-pyridazinone]: 59 to 62 °C; for `CC(C)(O)COc1c(-c2ccc(S(C)(=O)=O)cc2)cnn(-c2ccc(F)c(Cl)c2)c1=O` [Example 479, 2-(3-Chloro-4-fluorophenyl)-4-(2-hydroxy-2-methyl-1-propoxy)-5-[4-(methylsulfonyl)phenyl]-3(2H)-pyridazinone]: 122 to 124 °C.
In turn, `CC(C)(O)COc1c(-c2ccc(S(N)(=O)=O)cc2)cnn(-c2ccc(F)c(Cl)c2)c1=O` [Example 480, 2-(3-Chloro-4-fluorophenyl)-4-(2-hydroxy-2-methyl-1-propoxy)-5-[4-(aminosulfonyl)phenyl]-3(2H)-pyridazinone] came in with a melting point of 176 to 178 °C.
The value for `CC(C)(CO)COc1c(-c2ccc(S(C)(=O)=O)cc2)cnn(-c2ccc(F)c(F)c2)c1=O` [Example 510, 2-(3,4-Difluorophenyl)-4-(3-hydroxy-2,2-dimethyl-1-propoxy)-5-[4-(methylsulfonyl)phenyl]-3(2H)-pyridazinone] was 161 to 162 °C.
